Reference: patent US9242973B2, “Chromane compounds” (CoMentis, Inc., priority 2012, dated 2016)

Tested on: Aβ production in SK-N-BE(2) neuroblastoma cells
Test: Test Example 3: Aβ production inhibition in cell (Aβ40 ELISA, SK-N-BE(2))
Conditions: Homo sapiens, SKNBE2, 6 h, read-out: Test Example 3 IC50, SK-N-BE(2) cells, 6 hours, Aβ40 ELISA normalized by viability

Row | SMILES | IC50
1 | CC1(C)Oc2ccc(-c3cncnc3)cc2C2(COC(N)=N2)C12COC2 (single isomer, unassigned) [RP 51b, 2′,2′-dimethyl-6′-(pyrimidin-5-yl)dispiro[1,3-oxazole-4,4′-chromene-3′,3″-oxetan]-2-amine] | 72 nM
2 | NC1=NC2(COC1)c1cc(-c3cncnc3)ccc1OCC21CC1 (centres unmarked) [RP 215, 6′-(pyrimidin-5-yl)-6″H-dispiro[cyclopropane-1,3′-chromene-4′,3″-[1,4]oxazin]-5″-amine] | 240 nM
3 | CCOc1cc(-c2ccc3c(c2)C2(COC(N)=N2)C2(COC2)C2(CCC2)O3)cc(C(F)(F)F)c1 (centres unmarked) [RP 129] | 7300 nM
4 | CC1(C)Oc2ccc(-c3cc(Cl)cnc3F)cc2C2(COC(N)=N2)C12COC2 (centres unmarked) [RP 154] | 32 nM
5 | NC1=NC2(CO1)c1cc(-c3cc(Cl)cnc3F)ccc1OC1(CCC1)C21COC1 (centres unmarked) [RP 73] | 70 nM
6 | NC1=NC2(CO1)c1cc(-c3cncnc3)ccc1OC(C1CC1)C21COC1 (centres unmarked) [RP 88] | 1400 nM
7 | NC1=NC2(CO1)c1cc(NC(=O)c3ncc(Br)cn3)ccc1OCC21CC1 (centres unmarked) [RP 189] | 43 nM
8 | COc1ccnc(-c2ccc3c(c2)C2(COC(N)=N2)C2(COC2)C(C)(C)O3)c1 (centres unmarked) [RP 65, 6′-(4-methoxypyridin-2-yl)-2′,2′-dimethyldispiro[1,3-oxazole-4,4′-chromene-3′,3″-oxetan]-2-amine] | 49 nM
9 | NC1=NC2(CO1)c1cc(-c3cncc(F)c3)ccc1OC1(CCC1)C21COC1 (centres unmarked) [RP 70] | 960 nM
10 | N#Cc1cccc(-c2ccc3c(c2)C2(COC(N)=N2)C2(COC2)C2(CCC2)O3)c1 (centres unmarked) [RP 128] | 1500 nM
11 | Cc1cnc(Cl)c(-c2ccc3c(c2)C2(COC(N)=N2)C2(COC2)C(C)(C)O3)c1 (centres unmarked) [RP 151] | 280 nM
12 | CCC(CC)Cc1ccc2c(c1)C1(COC(N)=N1)C1(COC1)C1(CCC1)O2 (centres unmarked) [RP 47] | 1400 nM
13 | CC1(C)Oc2ccc(-c3cccnc3F)cc2C2(COC(N)=N2)C12COC2 (centres unmarked) [RP 82] | 36 nM
14 | CC(C)CC1Oc2ccc(-c3cncnc3)cc2C2(COC(N)=N2)C12COC2 (centres unmarked) [RP 93] | 370 nM
15 | NC1=NC2(CO1)c1cc(-c3cc(Cl)cnc3F)ccc1OCC21COC1 (centres unmarked) [RP 34] | 260 nM
16 | COc1ncc(Cl)cc1-c1ccc2c(c1)C1(COC(N)=N1)C1(COC1)C(C)(C)O2 (centres unmarked) [RP 155] | 630 nM
17 | NC1=NC2(CO1)c1cc(-c3cnc4[nH]ccc4c3)ccc1OCC21CC1 (centres unmarked) [RP 61, 6′-(1H-pyrrolo[2,3-b]pyridin-5-yl)dispiro[cyclopropane-1,3′-chromene-4′,4″-[1,3]oxazol]-2″-amine] | 350 nM
18 | COc1cccnc1Nc1ccc2c(c1)C1(COC(N)=N1)C1(COC1)C1(CCC1)O2 (centres unmarked) [RP 45] | 57 nM
19 | COc1cccc(-c2ccc3c(c2)C2(COC(N)=N2)C2(COC2)C(C)(C)O3)c1 (centres unmarked) [RP 142] | 150 nM
20 | CC#Cc1cncc(-c2ccc3c(c2)C2(COC(N)=N2)C2(COC2)C(Cc2ccccc2)O3)c1 (centres unmarked) [RP 201] | 8.7 nM
21 | CCC1Oc2ccc(-c3cncnc3)cc2C2(COC(N)=N2)C12COC2 (centres unmarked) [RP 84] | 410 nM
22 | CC1(C)Oc2ccc(NC(=O)c3ccc(F)cn3)cc2[C@@]2(COC(N)=N2)C12CC2 [Example 222] | 0.62 nM
23 | CC1(C)Oc2ccc(-c3cccc(C4CC4)c3)cc2C2(COC(N)=N2)C12COC2 (centres unmarked) [RP 140] | 410 nM
24 | NC1=NC2(CO1)c1cc(Nc3ncccc3Cl)ccc1OC1(CCC1)C21COC1 (centres unmarked) [RP 44] | 98 nM
25 | CC#Cc1cncc(-c2ccc3c(c2)C2(COC(N)=N2)C2(COC2)C(CCC)O3)c1 (centres unmarked) [RP 92] | 37 nM

Row | SMILES | IC50
26 | CCCC1Oc2ccc(-c3cncnc3)cc2C2(COC(N)=N2)C12COC2 (centres unmarked) [RP 91] | 340 nM
27 | CC1(C)Oc2ccc(-c3cc(F)ccn3)cc2C2(COC(N)=N2)C12COC2 (centres unmarked) [RP 149] | 1100 nM
28 | CC#Cc1cncc(-c2ccc3c(c2)C2(COC(N)=N2)C2(COC2)C(C)(C)O3)c1 (centres unmarked) [RP 110] | 9.2 nM
29 | CC#Cc1ccnc(-c2ccc3c(c2)C2(COC(N)=N2)C2(COC2)CO3)c1 (centres unmarked) [RP 56] | 740 nM
30 | COc1ccc(F)c(-c2ccc3c(c2)C2(COC(N)=N2)C2(COC2)C2(CCC2)O3)c1 (centres unmarked) [RP 136, 6′-(2-fluoro-5-methoxyphenyl)trispiro[cyclobutane-1,2′-chromene-4′,4″-[1,3]oxazole-3′,3′″-oxetan]-2″-amine] | 660 nM
31 | CC1(C)Oc2ccc(-c3cncnc3)cc2C2(COC(N)=N2)C12COC2 (centres unmarked) [RP 69] | 40 nM
32 | Cc1cncc(-c2ccc3c(c2)C2(COC(N)=N2)C2(COC2)C2(CCC2)O3)c1 (centres unmarked) [RP 75, 6′-(5-methylpyridin-3-yl)trispiro[cyclobutane-1,2′-chromene-4′,4″-[1,3]oxazole-3′,3′″-oxetan]-2″-amine] | 1100 nM
33 | NC1=NC2(CO1)c1cc(-c3cncc(C#CC4CC4)c3)ccc1OC1(CCC1)C21COC1 (centres unmarked) [RP 48, 6′-[5-(cyclopropylethynyl)pyridin-3-yl]trispiro[cyclobutane-1,2′chromene-4′,4″-[1,3]oxazole-3′,3′″-oxetan]-2″-amine] | 690 nM
34 | CC#Cc1cncc(-c2cc3c(cc2F)OCC2(CC2)C32COC(N)=N2)c1 (centres unmarked) [RP 112] | 660 nM
35 | Cc1cc(-c2ccc3c(c2)C2(COC(N)=N2)C2(COC2)C(C)(C)O3)cnc1F (centres unmarked) [RP 157] | 660 nM
36 | CC1(C)Oc2ccc(-c3ccc4c(c3)OCO4)cc2C2(COC(N)=N2)C12COC2 (centres unmarked) [RP 182] | 2500 nM
37 | Cc1cccc(-c2ccc3c(c2)C2(COC(N)=N2)C2(COC2)C2(CCC2)O3)c1 (centres unmarked) [RP 127] | 1800 nM
38 | NC1=NC2(c3cc(-c4cncnc4)ccc3OCC23CC3)C(F)(F)CO1 (centres unmarked) [RP 206] | > 30000 nM
39 | COc1cncc(-c2ccc3c(c2)[C@@]2(COC(N)=N2)C2(COC2)[C@@H](C)O3)c1 (racemic) [RP 81] | 510 nM
40 | CC1(C)Oc2ccc(-c3cnc4[nH]ccc4c3)cc2C2(COC(N)=N2)C12COC2 (centres unmarked) [RP 168] | 310 nM
41 | COc1cccnc1Nc1ccc2c(c1)C1(COC(N)=N1)C1(COC1)CO2 (centres unmarked) [RP 26] | 69 nM
42 | CC1(C)Oc2ccc(-c3cccc(C(F)(F)F)c3)cc2C2(COC(N)=N2)C12COC2 (centres unmarked) [RP 141] | 1300 nM
43 | NC1=NC2(CO1)c1cc(-c3cncnc3)ccc1OCC21COC1 (centres unmarked) [RP 36] | 810 nM
44 | CCOc1cccc(-c2ccc3c(c2)C2(COC(N)=N2)C2(COC2)C(C)(C)O3)c1 (centres unmarked) [RP 144] | 460 nM
45 | CC1(C)Oc2ccc(Br)cc2C2(COC(N)=N2)C12COC2 (centres unmarked) [RP 6, 6′-bromo-2′,2′-dimethyldispiro[1,3-oxazole-4,4′-chromene-3′,3″-oxetan]-2-amine] | 3900 nM
46 | CC#Cc1cncc(-c2ccc3c(c2)C2(COC(N)=N2)C2(COC2)C(CC2CC2)O3)c1 (centres unmarked) [RP 205] | 22 nM
47 | CC1(C)Oc2ccc(-c3cccnc3Cl)cc2C2(COC(N)=N2)C12COC2 (centres unmarked) [RP 156] | 180 nM
48 | NC1=NC2(CS1)c1cc(Br)ccc1OCC21COC1 (centres unmarked) [RP 41, 6′-bromodispiro[oxetane-3,3′-chromene-4′,4″-[1,3]thiazol]-2″-amine] | > 30000 nM
49 | CC1(C)Oc2ccc(-c3cc(F)cc(Cl)c3)cc2C2(COC(N)=N2)C12COC2 (centres unmarked) [RP 146, 6′-(3-chloro-5-fluorophenyl)-2′,2′-dimethyldispiro[1,3-oxazole-4,4′-chromene-3′,3″-oxetan]-2-amine] | 210 nM
50 | COC/C=C/c1ccc2c(c1)C1(COC(N)=N1)C1(COC1)C(C)(C)O2 (centres unmarked) [RP 181] | 820 nM
